Measurements: ChEMBL document CHEMBL1201862, “PubChem BioAssay data set” (2004)
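Briefly, cells in 96-well plates were exposed to five compound concentrations for 48 h, and endpoints were estimated by linear interpolation. GI50: concentration for 50% inhibition of growth.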 Active and inactive are the calls of the source. Rule as the data show it: active = GI50 up to about 1.1 µM and inactive = higher.

Assays:
Assay in all cases: DTP human tumour cell line panel, 48 h
NCI/ADR-RES = system: NCI/ADR-RES
OVCAR-8 = system: OVCAR-8
U-251 = system: U-251
MDA-MB-435 = system: MDA-MB-435
OVCAR-5 = system: OVCAR-5
KM12 = system: KM12
PC-3 = system: PC-3
MCF7 = system: MCF7
RPMI-8226 = system: RPMI-8226
OVCAR-4 = system: OVCAR-4
HCC 2998 = system: HCC 2998
HOP-62 = system: HOP-62
IGROV-1 = system: IGROV-1
HOP-92 = system: HOP-92
NCI-H226 = system: NCI-H226
OVCAR-3 = system: OVCAR-3
SK-MEL-5 = system: SK-MEL-5
MOLT-4 = system: MOLT-4
UACC-62 = system: UACC-62
Malme-3M = system: Malme-3M
NCI-H522 = system: NCI-H522
SF-268 = system: SF-268
A498 = system: A498
SR = system: SR
M14 = system: M14
A549 = system: A549
HL-60 = system: HL-60
SF-295 = system: SF-295
HCT-15 = system: HCT-15
Hs-578T = system: Hs-578T
K562 = system: K562
BT-549 = system: BT-549
RXF 393 = system: RXF 393
CAKI-1 = system: CAKI-1
CCRF-CEM = system: CCRF-CEM
HCT-116 = system: HCT-116
MDA-MB-231 = system: MDA-MB-231
EKVX = system: EKVX
DU-145 = system: DU-145
SK-MEL-28 = system: SK-MEL-28
MDA-N = system: MDA-N
T47D = system: T47D
LOX IMVI = system: LOX IMVI
HT-29 = system: HT-29
SNB-19 = system: SNB-19
SK-OV-3 = system: SK-OV-3
NCI-H23 = system: NCI-H23
SF-539 = system: SF-539
ACHN = system: ACHN
NCI-H460 = system: NCI-H460
SN12C = system: SN12C
UACC-257 = system: UACC-257
COLO 205 = system: COLO 205
SW-620 = system: SW-620
UO-31 = system: UO-31
SK-MEL-2 = system: SK-MEL-2
786-0 = system: 786-0
TK-10 = system: TK-10
SNB-75 = system: SNB-75

Measured: GI50

CC1=NN(c2cccc(Cl)c2)C2(C1=C/C=C/c1ccccc1)C(Cl)C(=O)N2c1nc2ccccc2s1 (configuration not stated)
inactive: NCI/ADR-RES 40.5 µM | OVCAR-8 17.9 µM | U-251 6.92 µM | MDA-MB-435 24.6 µM | OVCAR-5 34.1 µM | KM12 23.8 µM | PC-3 19.3 µM | MCF7 9.14 µM | RPMI-8226 4.43 µM | OVCAR-4 35.7 µM | HCC 2998 25.1 µM | HOP-62 27.9 µM | IGROV-1 27.5 µM | HOP-92 19.5 µM | NCI-H226 27.4 µM | OVCAR-3 24.7 µM | SK-MEL-5 22.9 µM | MOLT-4 1.53 µM | UACC-62 31.5 µM | Malme-3M 39 µM | NCI-H522 14.8 µM | SF-268 7.74 µM | A498 30.2 µM | SR 1.51 µM | M14 23 µM | A549 43 µM | HL-60 3.08 µM | SF-295 11 µM | Hs-578T 21 µM | K562 6.14 µM | BT-549 32.1 µM | RXF 393 23.1 µM | CAKI-1 9.4 µM | CCRF-CEM 8.05 µM | HCT-116 19.3 µM | MDA-MB-231 22.3 µM | EKVX 40.2 µM | DU-145 9.33 µM | SK-MEL-28 26.2 µM | MDA-N 26.8 µM | T47D 15.8 µM | LOX IMVI 13.1 µM | HT-29 25.7 µM | SNB-19 60.8 µM | SK-OV-3 29 µM | NCI-H23 16.9 µM | SF-539 19.2 µM | ACHN 4.76 µM | NCI-H460 5.42 µM | SN12C 34.6 µM | UACC-257 36.7 µM | COLO 205 62.7 µM | SW-620 18.9 µM | UO-31 21.4 µM | SK-MEL-2 18.7 µM | 786-0 11.7 µM | TK-10 53 µM
29.6 µM: HCT-15

Cc1ccc2c(c1C)C(=O)C1(Cc3cc4c(cc3C1=O)CCC4)C2 (configuration not stated)
> 100 µM: HCT-15
inactive: NCI/ADR-RES > 100 µM | OVCAR-8 > 100 µM | U-251 > 100 µM | MDA-MB-435 > 100 µM | OVCAR-5 > 100 µM | KM12 > 100 µM | PC-3 > 100 µM | MCF7 > 100 µM | RPMI-8226 > 100 µM | OVCAR-4 > 100 µM | HCC 2998 > 100 µM | IGROV-1 > 100 µM | HOP-92 > 100 µM | NCI-H226 > 100 µM | OVCAR-3 87.9 µM | SK-MEL-5 > 100 µM | MOLT-4 > 100 µM | UACC-62 > 100 µM | Malme-3M > 100 µM | NCI-H522 > 100 µM | SF-268 > 100 µM | A498 > 100 µM | SR > 100 µM | M14 > 100 µM | SNB-75 > 100 µM | A549 > 100 µM | HL-60 > 100 µM | SF-295 > 100 µM | Hs-578T > 100 µM | K562 > 100 µM | BT-549 > 100 µM | RXF 393 99.8 µM | CAKI-1 > 100 µM | CCRF-CEM > 100 µM | HCT-116 > 100 µM | MDA-MB-231 > 100 µM | EKVX > 100 µM | DU-145 > 100 µM | SK-MEL-28 > 100 µM | MDA-N > 100 µM | T47D > 100 µM | HT-29 > 100 µM | SNB-19 > 100 µM | SK-OV-3 > 100 µM | NCI-H23 > 100 µM | ACHN > 100 µM | NCI-H460 > 100 µM | SN12C > 100 µM | UACC-257 > 100 µM | COLO 205 > 100 µM | SW-620 > 100 µM | UO-31 > 100 µM | SK-MEL-2 > 100 µM | 786-0 > 100 µM | TK-10 > 100 µM
active: SF-539 0.726 µM

C/C=N\n1c(C)c(C#N)c(C#N)c1N
inactive: NCI/ADR-RES > 100 µM | OVCAR-8 > 100 µM | U-251 > 100 µM | MDA-MB-435 > 100 µM | OVCAR-5 > 100 µM | KM12 > 100 µM | PC-3 > 100 µM | MCF7 > 100 µM | RPMI-8226 > 100 µM | OVCAR-4 > 100 µM | HCC 2998 > 100 µM | HOP-62 > 100 µM | IGROV-1 > 100 µM | HOP-92 > 100 µM | NCI-H226 > 100 µM | OVCAR-3 > 100 µM | SK-MEL-5 > 100 µM | MOLT-4 > 100 µM | UACC-62 > 100 µM | Malme-3M > 100 µM | NCI-H522 > 100 µM | SF-268 > 100 µM | A498 > 100 µM | SR > 100 µM | M14 > 100 µM | SNB-75 > 100 µM | A549 34.5 µM | HL-60 > 100 µM | SF-295 > 100 µM | Hs-578T > 100 µM | K562 > 100 µM | BT-549 > 100 µM | RXF 393 > 100 µM | CAKI-1 > 100 µM | CCRF-CEM > 100 µM | HCT-116 > 100 µM | MDA-MB-231 > 100 µM | EKVX > 100 µM | DU-145 > 100 µM | MDA-N > 100 µM | T47D > 100 µM | LOX IMVI > 100 µM | HT-29 > 100 µM | SNB-19 > 100 µM | SK-OV-3 > 100 µM | NCI-H23 > 100 µM | SF-539 > 100 µM | ACHN > 100 µM | SN12C > 100 µM | UACC-257 > 100 µM | COLO 205 > 100 µM | SW-620 > 100 µM | UO-31 > 100 µM | SK-MEL-2 > 100 µM | 786-0 > 100 µM | TK-10 > 100 µM
> 100 µM: HCT-15
